Data on three compounds can be found in US8420686B2, “Linked diimidazole antivirals” (Enanta Pharmaceuticals, Inc., priority 2009, dated 2013).

This assay has as its system HCV 1b genotype replicon. Put plainly: HCV genotype-1b replicon assay (qRT-PCR or luciferase). It is filed as cell-based. As to conditions: Hepatitis C virus; HCV 1b replicon cell lines (SGR 11-7 or Huh-luc/neo-ET); qRT-PCR or luciferase readout; read-out: Genotype-1b replicon EC50 Range. From the text: HCV replicon cell lines (kindly provided by R. Bartenschlager) isolated from colonies as described by Lohman et al. (Lohman et al. (1999) Science 285: 110-113, expressly incorporated by reference in its entirety) and used for all experiments. The HCV replicon has the nucleic acid sequence set forth in EMBL Accession No.: AJ242651, the coding sequence of which is from nucleotides 1801 to 8406.
The coding sequence of the published HCV replicon was synthesized and subsequently assembled in a modified plasmid pBR322 (Promega, Madison, Wis.) using standard molecular biology techniques. One replicon cell line (“SGR 11-7”) stably expresses HCV replicon RNA which consists of (i) the HCV 5′UTR fused to the first 12 amino acids of the capsid protein, (ii) the neomycin phosphotransferase gene (neo), (iii) the IRES from encephalomyocarditis virus (EMCV), and (iv) HCV NS2 to NS5B genes and the HCV 3′UTR. […]
EC50 values of single agent compounds and combinations were determined by HCV RNA detection using quantitative RT-PCR, according to the manufacturer's instructions, with a TaqMan® One-Step RT-PCR Master Mix Reagents Kit (Cat#AB 4309169, Applied Biosystems) on an ABI Model 7500 thermocycler. The TaqMan primers used for detecting and quantifying HCV RNA were obtained from Integrated DNA Technologies. HCV RNA was normalized to GAPDH RNA levels in drug-treated cells, which is detected and quantified using the Human GAPDH Endogenous Control Mix (Applied Biosystems, AB 4310884E). […] Chemical agent cytotoxicity is evaluated using an MTS assay according to the manufacturer's directions (Promega). […]
Background: In antiviral work, replicon cells carry a viral genome segment that copies itself.

On to `CN(C)C(C(=O)N1CCC[C@H]1c1ncc(-c2ccc3cc4cc(-c5cnc([C@@H]6CCCN6C(=O)[C@@H](c6ccccc6)N(C)C)[nH]5)ccc4cc3c2)[nH]1)c1ccccc1` (stereo partly drawn) [Example 1-b], for which the EC50 is less than 1 nM.

For the compound `CN(C)[C@@H](C(=O)N1CCC[C@H]1c1ncc(-c2ccc(Oc3cccc(-c4cnc([C@@H]5CCCN5C(=O)[C@@H](c5ccccc5)N(C)C)[nH]4)c3)cc2)[nH]1)c1ccccc1` [Example 1-f], the concentration giving a half-maximal response (EC50) is less than 1 nM.

On to `CN(C)[C@@H](C(=O)N1CCC[C@H]1c1ncc(-c2ccc3c(c2)Cc2cc(-c4cnc([C@@H]5CCCN5C(=O)[C@@H](c5ccccc5)N(C)C)[nH]4)ccc2-3)[nH]1)c1ccccc1` [Example 2], for which the concentration giving a half-maximal response (EC50) was less than 1 nM.

For orientation: EC50 means the concentration giving half of the maximal effect.
